Experimental findings from patent publication US8580957B2, “Thetrahydroquinolines derivatives as bromodomain inhibitors” (GlaxoSmithKline LLC, priority 2009, dated 2013) are described below.

Structures are written as SMILES. Structures can show the parent of a compound that is named as a salt.

In one experiment the test system is TNFα levels in LPS stimulated whole blood. The experiment can be described thus: LPS Stimulated Whole Blood Measuring TNFα Levels Assay. It is filed as cell-based. To be noted: LPS 200 ng/ml, 24 hours, read-out: pIC50 (TNFα levels) (converted). As to the method: LPS Stimulated Whole Blood Measuring TNFα Levels Assay
Activation of monocytic cells by agonists of toll-like receptors such as bacterial lipopolysaccharide (LPS) results in production of key inflammatory mediators including TNFα. Such pathways are widely considered to be central to the pathophysiology of a range of auto-immune and inflammatory disorders.
(§1) Compounds to be tested are diluted to give a range of appropriate concentrations and 1 ul of the dilution stocks is added to wells of a 96 plate. Following addition of whole blood (130 ul) the plates are incubated at 37 degrees (5% CO2) for 30 min before the addition of 10 ul of 2.8 ug/ml LPS, diluted in complete RPMI 1640 (final concentration=200 ng/ml), to give a total volume of 140 ul per well. After further incubation for 24 hours at 37 degrees, 140 ul of PBS are added to each well. The plates are sealed, shaken for 10 minutes and then centrifuged (2500 rpm×10 min). 100 ul of the supernatant are removed and TNFα levels assayed by immunoassay (typically by MesoScale Discovery technology) either immediately or following storage at −20 degrees. Dose response curves for each compound was generated from the data and an IC50 value was calculated.
On to `CC(=O)N1c2ccc(-c3ccc(C(=O)O)cc3)cc2[C@@H](Nc2ccccc2)C[C@H]1C` (stereo in doubt) [Example 91, 4-[1-Acetyl-2-methyl-4-(phenylamino)-1,2,3,4-tetrahydro-6-quinolinyl]benzoic acid], for which the IC50 is at most 10 µM.

Regarding `CC(=O)N1c2ccc(-c3ccc(CN4CCCCC4)cc3)cc2[C@@H](Nc2ccc(Cl)cn2)C[C@H]1C` (racemic) [Example 136, (cis)-1-Acetyl-N-(5-chloro-2-pyridinyl)-2-methyl-6-[4-(1-piperidinylmethyl)phenyl]-1,2,3,4-tetrahydro-4-quinolinamine formate salt], the IC50 is at most 10 µM.

As for `CC[C@@H]1C[C@H](Nc2ccccc2)c2cc(-c3ccc(CN4CCCCC4)cc3)ccc2N1C(C)=O` (relative stereo) [Example 163, (cis)-1-Acetyl-2-ethyl-N-phenyl-6-[4-(1-piperidinylmethyl)phenyl]-1,2,3,4-tetrahydro-4-quinolinamine formate salt], the IC50 was at most 10 µM. On the same count and under the same terms, the same measure for `CCC[C@@H]1C[C@H](Nc2ccc(C)cc2)c2cc(-c3ccc(CN4CCCCC4)cc3)ccc2N1C(C)=O` [Example 189]: at most 10 µM; for `CC(=O)N1c2ccc(-c3ccc(CN4CCCCC4)cc3)cc2[C@@H](Nc2ccncc2)C[C@H]1C` (racemic) [Example 138, (cis)-1-Acetyl-2-methyl-6-[4-(1-piperidinylmethyl)phenyl]-N-4-pyridinyl-1,2,3,4-tetrahydro-4-quinolinamine trifluoroacetate]: at most 10 µM; for `CC(=O)N1c2ccc(-c3ccc(CN4CCCCC4)cc3)cc2[C@@H](Nc2ccc(C)cn2)C[C@H]1C` (racemic) [Example 135, (cis)-1-Acetyl-2-methyl-N-(5-methyl-2-pyridinyl)-6-[4-(1-piperidinylmethyl)phenyl]-1,2,3,4-tetrahydro-4-quinolinamine formate salt]: at most 10 µM. Same read-out and setting: the same measure for `CNCc1ccc(-c2ccc3c(c2)[C@H](Nc2ccc(F)cn2)C[C@H](C)N3C(C)=O)cc1` [Example 157, (2S,4R)-1-Acetyl-N-(5-fluoro-2-pyridinyl)-2-methyl-6-{4-[(methylamino)methyl]phenyl}-1,2,3,4-tetrahydro-4-quinolinamine hydrochloride]: at most 10 µM.

For the next experiment, the system named is LPS induced IL-6 secretion from whole blood. Nature of the experiment: Measurement of LPS Induced IL-6 Secretion from Whole Blood. Type of experiment: cell-based. The conditions noted are these: LPS 200 ng/ml, 24 hours, read-out: pIC50 (IL-6 levels) (converted). As to the method:
Measurement of LPS Induced IL-6 Secretion from Whole Blood
Activation of monocytic cells by agonists of toll-like receptors such as bacterial lipopolysaccharide (LPS) results in production of key inflammatory mediators including IL-6. Such pathways are widely considered to be central to the pathophysiology of a range of auto-immune and inflammatory disorders.
as §1, with “concentrations of which” for “concentrations and”, “the diluted” for “the dilution”, “to” for “to wells of”, “96 well” for “96”, “and IL-6” for “and TNFα”, “degrees. Concentration” for “degrees. Dose”
For the compound `CC(=O)N1c2ccc(-n3cnc(C)c3)cc2[C@H](Nc2ccc(C)cn2)C[C@@H]1C` [Example 190], the IC50 is above 10 µM. Still for that read-out and setting: the same measure for `CNCCn1cc(-c2ccc3c(c2)[C@H](Nc2cccc(C)n2)C[C@H](C)N3C(C)=O)cn1` [Example 147, (2S,4R)-1-Acetyl-2-methyl-6-{1-[2-(methylamino)ethyl]-1H-pyrazol-4-yl}-N-(6-methyl-2-pyridinyl)-1,2,3,4-tetrahydro-4-quinolinamine hydrochloride]: at most 10 µM; for `CNCCn1cc(-c2ccc3c(c2)[C@H](Nc2cccc(F)n2)C[C@H](C)N3C(C)=O)cn1` [Example 151, (2S,4R)-1-Acetyl-N-(6-fluoro-2-pyridinyl)-2-methyl-6-{1-[2-(methylamino)ethyl]-1H-pyrazol-4-yl}-1,2,3,4-tetrahydro-4-quinolinamine hydrochloride]: at most 10 µM. Still for that read-out and setting: the same measure for `CNCCn1cc(-c2ccc3c(c2)[C@H](Nc2ncccn2)C[C@H](C)N3C(C)=O)cn1` [Example 153, (2S,4R)-1-Acetyl-2-methyl-6-{1-[2-(methylamino)ethyl]-1H-pyrazol-4-yl}-N-2-pyrimidinyl-1,2,3,4-tetrahydro-4-quinolinamine hydrochloride]: at most 10 µM; for `CNCCn1cc(-c2ccc3c(c2)[C@H](Nc2ccc(F)cn2)C[C@H](C)N3C(C)=O)cn1` [Example 154, (2S,4R)-1-Acetyl-N-(5-fluoro-2-pyridinyl)-2-methyl-6-{1-[2-(methylamino)ethyl]-1H-pyrazol-4-yl}-1,2,3,4-tetrahydro-4-quinolinamine hydrochloride]: at most 10 µM. The same measure, in the same setting: the same measure for `CC(=O)N1c2ccc(-n3cnc(C)c3)cc2[C@@H](Nc2ccc(C#N)cn2)C[C@H]1C` (racemic) [Example 159, 6-{[(cis)-1-acetyl-2-methyl-6-(4-methyl-1H-imidazol-1-yl)-1,2,3,4-tetrahydro-4-quinolinyl]amino}-3-pyridinecarbonitrile]: at most 10 µM; for `CNCCn1cc(-c2ccc3c(c2)[C@H](Nc2cnccn2)C[C@H](C)N3C(C)=O)cn1` [Example 152, (2S,4R)-1-Acetyl-2-methyl-6-{1-[2-(methylamino)ethyl]-1H-pyrazol-4-yl}-N-2-pyrazinyl-1,2,3,4-tetrahydro-4-quinolinamine hydrochloride]: at most 10 µM; for `CNCCn1cc(-c2ccc3c(c2)[C@H](Nc2ncccc2C)C[C@H](C)N3C(C)=O)cn1` [Example 148, (2S,4R)-1-Acetyl-2-methyl-6-{1-[2-(methylamino)ethyl]-1H-pyrazol-4-yl}-N-(3-methyl-2-pyridinyl)-1,2,3,4-tetrahydro-4-quinolinamine hydrochloride]: at most 10 µM.

In the case of `CNCCn1cc(-c2ccc3c(c2)[C@H](Nc2ccncc2)C[C@H](C)N3C(C)=O)cn1` [Example 130, (2S,4R)-1-Acetyl-2-methyl-6-{1-[2-(methylamino)ethyl]-1H-pyrazol-4-yl}-N-4-pyridinyl-1,2,3,4-tetrahydro-4-quinolinamine formate salt], the IC50 is above 10 µM. As for `CNCCn1cc(-c2ccc3c(c2)[C@H](Nc2ccc(C)cn2)C[C@H](C)N3C(C)=O)cn1` [Example 155, (2S,4R)-1-Acetyl-2-methyl-6-{1-[2-(methylamino)ethyl]-1H-pyrazol-4-yl}-N-(5-methyl-2-pyridinyl)-1,2,3,4-tetrahydro-4-quinolinamine hydrochloride], the IC50 is at most 10 µM. With `CC(=O)N1c2ccc(-c3ccc(C(=O)O)cc3)cc2[C@H](Nc2ccc(C)cn2)C[C@@H]1C` [Example 126, 4-{(2S,4R)-1-Acetyl-2-methyl-4-[(5-methyl-2-pyridinyl)amino]-1,2,3,4-tetrahydro-6-quinolinyl}benzoic acid], the IC50 was above 10 µM. On the same count and under the same terms, the same measure for `CNCCn1cc(-c2ccc3c(c2)[C@H](Nc2cc(C)ccn2)C[C@H](C)N3C(C)=O)cn1` [Example 149, (2S,4R)-1-Acetyl-2-methyl-6-{1-[2-(methylamino)ethyl]-1H-pyrazol-4-yl}-N-(4-methyl-2-pyridinyl)-1,2,3,4-tetrahydro-4-quinolinamine hydrochloride]: at most 10 µM; for `CNCCn1cc(-c2ccc3c(c2)[C@H](Nc2cc(F)ccn2)C[C@H](C)N3C(C)=O)cn1` [Example 156, (2S,4R)-1-Acetyl-N-(4-fluoro-2-pyridinyl)-2-methyl-6-{1-[2-(methylamino)ethyl]-1H-pyrazol-4-yl}-1,2,3,4-tetrahydro-4-quinolinamine hydrochloride]: at most 10 µM; for `CNCCn1cc(-c2ccc3c(c2)[C@H](Nc2ncccc2F)C[C@H](C)N3C(C)=O)cn1` [Example 150, (2S,4R)-1-Acetyl-N-(3-fluoro-2-pyridinyl)-2-methyl-6-{1-[2-(methylamino)ethyl]-1H-pyrazol-4-yl}-1,2,3,4-tetrahydro-4-quinolinamine hydrochloride]: at most 10 µM. With `CC(=O)N1c2ccc(-n3cnc(C)c3)cc2[C@@H](Nc2ccc(C(=O)O)cn2)C[C@H]1C` (racemic) [Example 143, 6-{[(cis)-1-acetyl-2-methyl-6-(4-methyl-1H-imidazol-1-yl)-1,2,3,4-tetrahydro-4-quinolinyl]amino}-3-pyridinecarboxylic acid], the IC50 was above 10 µM.
